Experiments:
Type in all cases: cell-based
[1] = molecular target: T1, human TRPA1 channel (hTRPA1) (Homo sapiens, UniProt O75762); test: fluo-4 calcium imaging in hTRPA1-HEK vs control cells at […]; conditions: read-out: % of ionomycin response at 100 μM
[2] = molecular target: T1, human TRPA1 channel (hTRPA1); test: fluo-4 calcium imaging in hTRPA1-HEK vs control cells at […] ([…] of ionomycin, […] of SCA response)
[3] = molecular target: T1, human TRPA1 channel (hTRPA1); test: whole-cell patch clamp in hTRPA1-HEK cells vs control cells; calcium imaging

T1 sequence (O75762 whole entry): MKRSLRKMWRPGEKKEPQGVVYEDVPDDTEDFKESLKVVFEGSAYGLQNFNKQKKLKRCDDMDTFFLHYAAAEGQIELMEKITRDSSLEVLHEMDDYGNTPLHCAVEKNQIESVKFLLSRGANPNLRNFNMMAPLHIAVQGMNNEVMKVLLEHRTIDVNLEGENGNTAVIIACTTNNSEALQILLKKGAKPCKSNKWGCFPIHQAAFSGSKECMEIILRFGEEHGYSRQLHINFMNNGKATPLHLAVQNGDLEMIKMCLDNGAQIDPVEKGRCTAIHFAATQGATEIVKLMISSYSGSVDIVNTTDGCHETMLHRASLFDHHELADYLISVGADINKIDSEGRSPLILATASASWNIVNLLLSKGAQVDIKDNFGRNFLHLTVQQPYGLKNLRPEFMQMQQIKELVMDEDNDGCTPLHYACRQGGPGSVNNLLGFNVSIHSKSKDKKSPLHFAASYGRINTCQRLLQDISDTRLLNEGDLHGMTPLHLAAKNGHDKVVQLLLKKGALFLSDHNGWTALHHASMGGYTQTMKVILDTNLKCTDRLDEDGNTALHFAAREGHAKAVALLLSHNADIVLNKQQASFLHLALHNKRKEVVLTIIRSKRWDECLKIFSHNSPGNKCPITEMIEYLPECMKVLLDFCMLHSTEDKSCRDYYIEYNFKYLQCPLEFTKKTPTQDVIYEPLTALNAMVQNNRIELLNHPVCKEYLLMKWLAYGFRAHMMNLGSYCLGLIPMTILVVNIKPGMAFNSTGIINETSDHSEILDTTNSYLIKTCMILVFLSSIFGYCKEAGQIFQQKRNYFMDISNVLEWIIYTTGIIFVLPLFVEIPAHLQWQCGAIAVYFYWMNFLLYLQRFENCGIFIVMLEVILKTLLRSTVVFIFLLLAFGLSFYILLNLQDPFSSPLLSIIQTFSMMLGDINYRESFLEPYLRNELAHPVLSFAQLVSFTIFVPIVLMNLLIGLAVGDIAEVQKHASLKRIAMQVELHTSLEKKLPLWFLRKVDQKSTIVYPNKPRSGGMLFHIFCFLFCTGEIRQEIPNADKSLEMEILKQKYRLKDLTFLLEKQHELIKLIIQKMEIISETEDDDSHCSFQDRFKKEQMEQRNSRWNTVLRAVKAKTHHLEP

| SMILES | activation at 100 µM [1] | further results |
| --- | --- | --- |
| O=C(OCc1ccccc1)c1ccc(O)cc1 [BzPa, Benzyl 4-hydroxybenzoate] | 34.2% | – |
| Oc1c(Cl)cc(Cl)c(Cl)c1Cc1c(O)c(Cl)cc(Cl)c1Cl [HCP, 3,4,6-trichloro-2-[(2,3,5-trichloro-6-hydroxyphenyl)methyl]phenol] | – | activation at 10 µM [2]: 47% |
| CC(C)(c1ccc(O)cc1)c1ccc(O)cc1 [BPA, 4-[2-(4-hydroxyphenyl)propan-2-yl]phenol] | 11% | – |
| Oc1c(Cl)c(Cl)c(Cl)c(Cl)c1Cl [PCP, 2,3,4,5,6-pentachlorophenol] | – | EC50 [3]: 15 µM |

Reference: paper PMC10619430, “Xenobiotic Exposure and Migraine-Associated Signaling: A Multimethod Experimental Study Exploring Cellular Assays in Combination with Ex Vivo and In Vivo Mouse Models” (Environmental Health Perspectives, 2023)
